# In publication PMC11945486, “TAS1R2/TAS1R3 Single-Nucleotide Polymorphisms Affect Sweet Taste Receptor Activation by Sweeteners: The SWEET Project” (Nutrients, 2025):
# No end group written: not given here.
# B1: thaumatin (protein)
# chain: ATFEIVNRCSYTVWAAASKGDAALDAGGRQLNSGESWTINVEPGTKGGKIWARTDCYFDDSGSGICKTGDCGGLLRCKRFGRPPTTLAEFSLNQYGKDYIDISNIKGFNVPMDFSPTTRGCRGVRCAADIVGQCPAKLKAPGGGCNDACTVFQTSEYCCTTGKCGPTEYSRFFKRLCPDAFSYVLDKPTTVTCPGSSNYRVTFCPTA
# modifications: Eight disulfides
# notes: sweet-tasting plant protein, E957
# Target: T1, human TAS1R2-P21L/TAS1R3-WT (Homo sapiens, UniProt Q7RTX0+Q8TE23, P21L)
# T1 construct: expressed in transfected cells; host or cells: HEK293T-Gα16gust44
# T1 sequence (Q8TE23 20-839 P21L): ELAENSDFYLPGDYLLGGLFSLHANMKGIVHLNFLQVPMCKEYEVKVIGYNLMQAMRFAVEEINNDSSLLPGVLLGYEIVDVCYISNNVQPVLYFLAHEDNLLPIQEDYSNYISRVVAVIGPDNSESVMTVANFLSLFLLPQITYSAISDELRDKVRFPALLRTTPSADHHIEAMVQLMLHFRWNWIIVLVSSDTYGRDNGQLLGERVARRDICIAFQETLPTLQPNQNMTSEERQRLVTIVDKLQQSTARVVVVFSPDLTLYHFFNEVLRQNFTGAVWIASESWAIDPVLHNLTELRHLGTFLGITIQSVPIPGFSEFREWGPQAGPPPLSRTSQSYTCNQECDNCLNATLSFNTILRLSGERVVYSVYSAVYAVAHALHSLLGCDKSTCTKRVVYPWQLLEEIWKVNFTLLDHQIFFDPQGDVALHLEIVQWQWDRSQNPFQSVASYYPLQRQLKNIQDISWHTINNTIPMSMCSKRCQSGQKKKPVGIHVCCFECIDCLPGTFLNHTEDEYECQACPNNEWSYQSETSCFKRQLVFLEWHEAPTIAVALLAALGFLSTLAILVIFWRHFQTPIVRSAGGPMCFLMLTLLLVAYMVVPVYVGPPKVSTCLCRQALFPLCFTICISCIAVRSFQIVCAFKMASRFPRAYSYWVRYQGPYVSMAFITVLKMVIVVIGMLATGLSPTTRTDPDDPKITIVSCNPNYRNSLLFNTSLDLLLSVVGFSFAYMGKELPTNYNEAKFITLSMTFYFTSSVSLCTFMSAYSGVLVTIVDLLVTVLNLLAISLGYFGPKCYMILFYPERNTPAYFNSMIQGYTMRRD
# T1 sequence (Q7RTX0 21-852): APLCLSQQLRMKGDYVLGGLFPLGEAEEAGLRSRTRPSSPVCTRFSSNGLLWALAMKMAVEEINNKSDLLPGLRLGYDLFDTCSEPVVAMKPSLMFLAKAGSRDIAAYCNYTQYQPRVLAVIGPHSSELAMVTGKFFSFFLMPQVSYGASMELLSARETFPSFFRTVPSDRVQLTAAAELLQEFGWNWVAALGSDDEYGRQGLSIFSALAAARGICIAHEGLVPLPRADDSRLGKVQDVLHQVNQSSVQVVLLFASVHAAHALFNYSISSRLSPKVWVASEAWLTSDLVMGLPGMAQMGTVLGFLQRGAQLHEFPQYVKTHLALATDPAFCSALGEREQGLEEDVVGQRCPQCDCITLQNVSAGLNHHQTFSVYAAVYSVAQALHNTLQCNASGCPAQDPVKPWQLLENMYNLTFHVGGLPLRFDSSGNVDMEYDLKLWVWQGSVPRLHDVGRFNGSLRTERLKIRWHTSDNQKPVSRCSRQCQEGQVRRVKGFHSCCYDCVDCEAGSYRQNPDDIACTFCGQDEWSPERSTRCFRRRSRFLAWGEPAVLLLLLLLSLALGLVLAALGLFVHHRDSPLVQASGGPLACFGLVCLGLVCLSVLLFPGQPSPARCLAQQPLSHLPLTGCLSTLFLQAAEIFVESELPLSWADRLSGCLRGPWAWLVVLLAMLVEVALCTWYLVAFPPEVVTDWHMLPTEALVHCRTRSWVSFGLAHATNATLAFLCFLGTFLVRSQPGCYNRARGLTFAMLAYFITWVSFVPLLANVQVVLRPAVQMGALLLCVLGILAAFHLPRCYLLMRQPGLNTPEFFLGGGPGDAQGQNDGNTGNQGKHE
# Test: Calcium mobilisation assay, TAS1R2 variant P21L with TAS1R3-WT
# Type: cell-based
# Details: for Max ΔF/F0: maximal signal amplitude
# Text: The coding sequences for TAS1R2 and TAS1R3 were commercially synthesised, and the human codon was optimised for expression in human cells. The coding sequences of human TAS1R2 and TAS1R3 were subcloned and inserted into the mammalian expression vectors pcDNA6/myc-HisA and pcDNA4/myc-HisA (Invitrogen; Thermo Fisher Scientific; Illkirch, France) between the EcoRI and NotI restriction sites, generating the plasmids pcDNA6-TAS1R2 and pcDNA4-TAS1R3, respectively. To increase protein expression in mammalian cells, an upstream start codon was used, which was a sequence called MAX, corresponding to the QBI SP163 element also described in pcDNA4-HisMax (Invitrogen; Thermo Fisher Scientific; Illkirch, France). To measure the expression level of the receptor by immunohistochemistry, we used the FLAG sequence ([…]) in the C-terminal position, which encodes the FLAG tag epitope. SNP variants of TAS1R2 and TAS1R3 were constructed based on […], respectively, using site-directed mutagenesis (Genewiz; Leipzig, Germany).
# The HEK293T cells were kindly provided by Jay P. Slack (Givaudan Flavors Corporation; Cincinnati, OH, USA). HEK293T cells stably transfected with Gα16gust44 [43, 67] were seeded in poly-D-lysine-coated clear-bottom black 96-well plates (0.35 × 10^5 cells/well) in high-glucose DMEM supplemented with 2 mM GlutaMAX, 10% dialysed foetal bovine serum with penicillin/streptomycin and G418 (400 μg/mL) at 37 °C and 6.3% CO2 in a humidified atmosphere as previously reported. […] As a negative control, HEK293T cells were mock-transfected with the empty expression vector. After a further 24 h of incubation, the HEK293T cells were washed with C1 buffer (130 mM NaCl, 5 mM KCl, 10 mM HEPES pH 7.4 and 2 mM CaCl2). The 96-well plates containing the cells were then stimulated with sweet-tasting compounds. […] Different concentration ranges were tested depending on the sweet compound injected. The Ca^2+ changes were expressed as fractional changes in fluorescent light intensity: ΔF/F = (F − F0)/F0, where F was the fluorescent light intensity at each point, and F0 was the value of emitted fluorescent light prior to stimulus application. To calculate dose–response relationships, the changes in fluorescence upon stimulus application were averaged, mock-subtracted and baseline-corrected. The dose–response data obtained were adjusted using a 4-parameter logistic equation. The half-maximal effective concentrations (EC50 values) and maximal signal amplitudes were calculated using SigmaPlot software (version 15.0) (Systat Software; San Jose, CA, USA).
# For in vitro calcium mobilisation assay performed on hTAS1R2-SNPs, hTAS1R3-SNPs and mTAS1R3-I60T, 6 to 7 concentrations were tested for each sweet compound, plus buffer alone. All concentration–receptor combinations were measured in duplicate, and each experiment was repeated at least 4 times (8 wells/concentration). Results were expressed for each concentration as ΔF/F mean ± SEM and represented as dose–response curves.
Molecule,EC50 [µM],R1 = Variant EC50/WT EC50,Max ΔF/F0
OC[C@H]1O[C@H](O[C@]2(CCl)O[C@H](CCl)[C@@H](O)[C@@H]2O)[C@H](O)[C@@H](O)[C@H]1Cl [Sucralose],80 ± 13,0.9,0.50 ± 0.03
"C[C@H](CC[C@@H](O[C@@H]1O[C@H](CO[C@@H]2O[C@H](CO)[C@@H](O)[C@H](O)[C@H]2O)[C@@H](O)[C@H](O)[C@H]1O[C@@H]1O[C@H](CO)[C@@H](O)[C@H](O)[C@H]1O)C(C)(C)O)[C@H]1CC[C@@]2(C)[C@@H]3CC=C4[C@@H](CC[C@H](O[C@@H]5O[C@H](CO[C@@H]6O[C@H](CO)[C@@H](O)[C@H](O)[C@H]6O)[C@@H](O)[C@H](O)[C@H]5O)C4(C)C)[C@]3(C)[C@H](O)C[C@]12C [Mogroside V, mogroside V]",19.9 ± 1.1,1.2,1.18 ± 0.02
COC(=O)[C@H](Cc1ccccc1)NC(=O)[C@H](CC(=O)O)NCCC(C)(C)C [Neotame],0.67 ± 0.16,0.8,0.53 ± 0.04
"brazzein (QDKCKKVYENYPVSKCQLANQCNYDCKLDKHARSGECFYDEKRNLQCICDYCEY; ends and bridges not checked; cysteine pairing not given here; UniProt P56552 1-54, looked up) [sweet-tasting protein obtained by recombinant production using the yeast Pichia pastoris]",–,1.1,1.09 ± 0.01
"C=C(C)[C@@H]1CC=C(/C=N/O)CC1 [Perillartine, perillartine]",26.3 ± 1.1,1.5,1.35 ± 0.03
"CC1=CC(=O)NS(=O)(=O)O1 [Acesulfame K, acesulfame K]",374 ± 11,0.5,0.24 ± 0.01
"C=C1C[C@@]23CC[C@H]4[C@@](C)(CCC[C@@]4(C)C(=O)O[C@@H]4O[C@H](CO)[C@@H](O)[C@H](O[C@@H]5O[C@H](CO)[C@@H](O)[C@H](O)[C@H]5O)[C@H]4O[C@@H]4O[C@H](CO)[C@@H](O)[C@H](O)[C@H]4O)[C@@H]2CC[C@]1(O[C@@H]1O[C@H](CO)[C@@H](O)[C@H](O[C@@H]2O[C@H](CO)[C@@H](O)[C@H](O)[C@H]2O)[C@H]1O[C@@H]1O[C@H](CO)[C@@H](O)[C@H](O)[C@H]1O)C3 [Rebaudioside M, rebaudioside M]",19.5 ± 0.9,1.2,0.99 ± 0.02
"O=S(=O)(O)NC1CCCCC1 [Cyclamate, cyclamate]",2110 ± 55,–,–
"COc1ccc(CCC(=O)c2c(O)cc(O[C@@H]3O[C@H](CO)[C@@H](O)[C@H](O)[C@H]3O[C@@H]3O[C@@H](C)[C@H](O)[C@@H](O)[C@H]3O)cc2O)cc1O [NHDC, neohesperidin dihydrochalcone]",100 ± 5.1,1.3,0.81 ± 0.02
thaumatin,–,0.4,0.19 ± 0.04
B1,3.3,–,–
